Experimental data: paper PMC5339480, “Mutagenic and Cytotoxicity LQB 123 Profile: Safety and Tripanocidal Effect of a Phenyl-t-Butylnitrone Derivative” (BioMed Research International, 2017)

Columns and labels:
Salmonella = details: cited from earlier work
[1] = tested on: Salmonella typhimurium TA100; test: Salmonella/microsome assay, TA100
Protocol: (§1) Stationary growth cultures of histidine auxotrophic Salmonella typhimurium (2 × 10^9 cells/mL) TA97, TA98, TA100, TA102, and TA1535 strains were obtained at 37°C in lysogenic broth (LB, 10 g/L tryptone; 5 g/L yeast extract; 10 g/L NaCl) containing 8 μg/mL ampicillin and 2 μg/mL tetracycline (only for TA102). All strains used in the present work were from our laboratory collection. […] Then, the Ames test was performed according to Maron and Ames. DMSO was used as a negative control. […] All chemicals were from Sigma Co.

[2] = tested on: Salmonella typhimurium TA1535; test: Salmonella/microsome assay, TA1535
Protocol: as §1

T. cruzi = tested on: T. cruzi; set-up: method as in PMID 20510218; details: treated only with PBN; cited from earlier work
[3] = tested on: Salmonella typhimurium TA98; test: Salmonella/microsome assay, TA98; type: cell-based; details: +S9, positive control (PC) 517 μM
Source text: (§2) DMSO was used as a negative control. […] All chemicals were from Sigma Co.

[4] = tested on: Salmonella typhimurium TA97; test: Salmonella/microsome assay, TA97; type: cell-based; details: +S9, positive control (PC) 517 μM
Source text: as §2

[5] = TA100, −S9, positive control (PC) 769 μM
[6] = TA1535, −S9, positive control (PC) 154 μM

O=C(Cn1ccnc1[N+](=O)[O-])NCc1ccccc1 [benznidazole]
dose giving the maximum mutagenic rate (Salmonella): 100 micrograms per plate

[N-]=[N+]=[N-].[Na+] [AS, sodium azide]
MI (mutagenicity index) [1, 5]: 3.2
Number of revertant colonies per plate, Mean ± SD [1, 5]: 637 ± 52^∗
MI (mutagenicity index) [2, 6]: 47.3
Number of revertant colonies per plate, Mean ± SD [2, 6]: 615 ± 83^∗

CC(C)(C)/[N+]([O-])=C/c1ccccc1 [PBN, alpha-phenyl-tert-butyl nitrone]
parasite persistence (T. cruzi): no decline in parasite persistence

Nc1ccc2cc3ccccc3cc2c1 [2-AA, 2-aminoanthracene]
MI (mutagenicity index) [3]: 16.0
Number of revertant colonies per plate, Mean ± SD [3]: 291 ± 36^∗
MI (mutagenicity index) [4]: 9.0
Number of revertant colonies per plate, Mean ± SD [4]: 1488 ± 139^∗
MI (mutagenicity index) ([1]; Salmonella typhimurium): 4.6
Number of revertant colonies per plate, Mean ± SD ([1]; Salmonella typhimurium): 1257 ± 107^∗
MI (mutagenicity index) ([2]; Salmonella typhimurium): 10.1
Number of revertant colonies per plate, Mean ± SD ([2]; Salmonella typhimurium): 168 ± 18^∗
